# Laboratory results as given in patent US10960002B2, “Volatile metabolite profiles for the diagnosis and treatment of Mucorales fungi” (The Brigham and Women's Hospital, Inc., priority 2016, dated 2021).
# System: Rhizopus microsporus
# Experiment: Sequential GC-MS analysis of breath samples from a patient with proven Rhizopus microsporus infection during antifungal therapy
# Format: in vivo, human
# Conditions: one patient with proven Rhizopus microsporus infection; from day 0 (start of therapy) over the 28-day treatment course
smiles,measurement,value
C[C@@H](c1nc(-c2ccc(C#N)cc2)cs1)[C@](O)(Cn1cncn1)c1cc(F)ccc1F [isavuconazole],"breath levels of three sesquiterpene metabolites (1H-Indene, 2,3,3a,4-tetrahydro-3,3a,6-trimethyl-1-(1-methylethyl)-; cedrene; cedranoxide, 8,14-)",gradual attenuation and disappearance
